Experimental data published in US20240024216A1, “METHODS AND MATERIALS FOR TREATING HAIR LOSS” (The Penn State Research Foundation, priority 2021, published 2024).

Legend:
[1] = test system: human foreskin primary keratinocytes; test: Keratinocyte scratch assay with 4-AP, NGF and NGF-antibody; assay type: cell-based; conditions: at 12 hours
Procedure: Keratinocytes (7×10^4 cells/well) with KC medium were seeded on collagen-I pre-coated 96-well ImageLock microplate for 6 hours. For the drug treatment cells were pretreated with 4-AP prior to coating for 16-18 hours. Next, the wound scratch was created using IncuCyte automated system. After scratches the cells washed with PBS and the respective cells medium was added with individual 1 mM of 4-AP and 200 ng/ml of NGF (MyBioSource, Inc., Catlog No. MBS7114974) in keratinocytes medium and combination of 1 mM of 4-AP & 200 ng/mL NGF with or without 10 μg/ml of NGF-antibody (ThermoFisher Scientific, Catlog No. MA5-32067). The plate was incubated in Incucyte automated imaging system, wound healing and cells migration imaged for every hour until 24 hour and analyzed for percent of closure as described above procedure.

[2] = test system: keratinocytes co-cultured with fibroblasts (10:1); test: Co-culture scratch assay, keratinocytes with fibroblasts; assay type: cell-based, human; conditions: measured at 15 hours; 72% in non-treated
Procedure: To determine the influence of Schwann cells and fibroblast on keratinocytes migration and proliferation wound healing scratch assay was conducted. The co-culture experiment performed in Keratinocytes to either Schwann cells or fibroblasts in a ratio of 10:1 with same proposition of their respective medium were seeded on 96-well ImageLock microplate for 6 hours and the wells were pre-coated with collagen-I plate. For the drug treatment cells were pretreated with 4-AP prior to coating for 16-18 hours. Next, the wound scratch was created and treated cells with and without 4-AP in medium. Imaged for every hour until 24 hour and analyzed for percent of closure as described above procedure.

C57BL/6 mice = test: Hair regrowth after dorsal hair removal in mice; assay type: in vivo
Procedure: Wild-type C57BL/6 mice (7-8 weeks old) were placed in the lateral decubitus position on a sterile paper sheet after anesthesia using intraperitoneal injection of ketamine (60 mg/kg) and xylazine (4 mg/kg). Sterile surgical instruments (autoclaved) were used during dorsal hair removal. The skin was prepared for hair removal on the dorso-lateral skin (from neck to tail) by shaving with a mechanical shaver, and then hair removal cream (Nair) was placed on the skin for 30-60 seconds. Hair was removed completely by gently wiping the skin with cotton balls soaked in warm water and disinfected using 70% ethanol wipes and betadine 3 times.
After dorsal hair removal, mice were placed in a clean cage on the heating pad for 30 minutes or until recovery. […]
At day 14, the backs of the mice were photographed with a digital camera, to evaluate the darkening of skin color. […] In morphological observation (FIG. 1A and FIG. 1), hair growth area was determined as a percentage after photographing hair growth state on the backs of mice and observation was conducted after hair removal at day 0 and after 4-AP treatment (daily systemic) at day 14. […] The level of hair regrowth/pigmentation was quantified by the intensity of the darkness of the back skin in the same area. […]

[3] = test system: human foreskin dermal primary fibroblast; test: Scratch wound healing migration assay, primary dermal fibroblasts; assay type: cell-based
[4] = test system: human foreskin dermal primary Schwann cells; test: Scratch wound healing migration assay, primary dermal Schwann cells; assay type: cell-based
Procedure: Dermal Schwann cells isolation culture conditions and characterization—The separated dermis was minced into small pieces and placed in a petri dish containing collagenase in DMEM basal medium at 37° C. for 2.5 hours. The dermis was completely dissociated and the medium was cloudy. The dissociated medium was collected in tube and centrifuged at 1500 rpm for 5 minutes. The pellet was resuspended in complete DMEM medium, added on poly-L-lysine coated dish and the dish was incubated at 37° C. in 5% CO2 incubator for overnight. Next day, adhered cells were treated with 10 μM cytosine arabinoside containing DMEM complete medium and incubated at 37° C. in 5% CO2 incubator for 24 hours. After, the cells were cultured in Schwann cells culture medium (ScienCell Research, Catlog No. 1701) until the cells reached about 95% confluence.
Keratinocytes/Schwann cells/fibroblasts (7×10^4 cells/well keratinocytes and 3.5×10^4 cells/well of SCs and FBs) with their respective medium were seeded on pre-coated either with collagen-I/PLL/no 96-well ImageLock microplate for 6 hours (Incucyte-sartorius plate, Cat log 4379). For the drug treatment cells were pretreated with 4-AP prior to coating for 16-18 hours. […] The plate was incubated in Incucyte automated imaging system, wound healing and cells migration was monitored by time-lapse photography capturing every hour from 0 to 42 hours. […]

Compound: Nc1ccncc1 [4-AP, 4-aminopyridine]
- scratch closure ([1]; 56% in control cultures, 1 mM 4-AP, 200 ng/ml NGF): 75%
- scratch closure with NGF-neutralizing antibody ([1]; plus 10 μg/ml NGF-antibody): 67%
- scratch closure [2]: 93%
- number of hair follicles (H&E transverse sections) (C57BL/6 mice; day 14, compared with saline treated mice): increased
- hair regrowth (C57BL/6 mice; day 14 after hair removal, systemic ip 10-50 μg/daily): around 50%
- fibroblast migration ([3]; 1 mM 4-AP vs no treatment): unaffected
- vimentin and α-SMA protein expression (fibroblast to myofibroblast conversion) ([3]; 4-AP exposed vs no treatment): increased
- time to 80% scratch closure ([4]; 1 mM 4-AP, 23 hours without treatment): 11 h
- SOX10 and NGF expression in SCs ([4]; compared to controls): increased
